Results taken from PubChem BioAssay (NCI).
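Assay format: 96-well plates, 48-hour exposure. GI50 is the concentration that inhibits growth by half. TGI: total growth inhibition.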

Assays:
Assay in all cases: NCI anticancer screen, dose series, 48 h
786-0 renal = system: 786-0 renal
A498 renal = system: A498 renal
ACHN renal = system: ACHN renal
HCT-116 colon = system: HCT-116 colon
HCT-15 colon = system: HCT-15 colon
HOP-62 NSCLC = system: HOP-62 NSCLC
HOP-92 NSCLC = system: HOP-92 NSCLC
SF-539 CNS = system: SF-539 CNS
SNB-19 CNS = system: SNB-19 CNS
U251 CNS = system: U251 CNS

| Compound | GI50 (786-0 renal) [µM] | TGI (786-0 renal) [µM] | GI50 (A498 renal) [µM] | TGI (A498 renal) [µM] | GI50 (ACHN renal) [µM] | TGI (ACHN renal) [µM] | GI50 (HCT-116 colon) [µM] | TGI (HCT-116 colon) [µM] | GI50 (HCT-15 colon) [µM] | TGI (HCT-15 colon) [µM] | GI50 (HOP-62 NSCLC) [µM] | TGI (HOP-62 NSCLC) [µM] | GI50 (HOP-92 NSCLC) [µM] | TGI (HOP-92 NSCLC) [µM] | GI50 (SF-539 CNS) [µM] | TGI (SF-539 CNS) [µM] | GI50 (SNB-19 CNS) [µM] | TGI (SNB-19 CNS) [µM] | GI50 (U251 CNS) [µM] | TGI (U251 CNS) [µM] |
| --- | --- | --- | --- | --- | --- | --- | --- | --- | --- | --- | --- | --- | --- | --- | --- | --- | --- | --- | --- | --- |
| O=C(CN1CCN(c2ncnc3ccccc23)CC1)Nc1ccc(Cl)cc1C(=O)c1ccccc1Cl | 0.356 | 12.3 | 1.5 | 3.69 | 1.67 | 18.7 | 0.417 | 11 | 3.12 | 10.8 | 0.626 | 6.07 | 0.542 | 15.4 | 0.383 | 1.3 | 1.71 | 12.2 |  |  |
| CC1CC2(C)ON=C(c3ccccc3)N2c2ccccc2S1 (stereo not given) | 34.4 |  | 34.7 |  | 32.8 |  | 21.4 | 49.6 | 44.6 |  | 56.7 |  |  |  | 22.4 | 51.6 | 53.9 |  | 34.9 |  |
| CC1(C)COC(C23C4C5C2C2C3C4C52I)=N1 (stereo not given) |  | > 100 |  | > 100 |  | > 100 |  |  |  | > 100 |  | > 100 |  | > 100 |  | > 100 |  | > 100 |  | > 100 |
| COc1ccc2nc(-c3cc(-c4cc(OC)c(OC)c(OC)c4)n[nH]3)[nH]c2c1 | 2.92 | 12.8 | 2.23 | 10.2 | 2.63 | 10.7 | 1.81 | 6.65 | 2.5 | 10.7 | 2.02 | 5.77 |  |  | 2.42 | 9.71 | 2.98 | 14.1 | 2.9 | 11.5 |
| CCOC(C)C(/C=N/NC(N)=S)=NNC(N)=S (stereo not given) |  | > 100 |  | 85.2 |  | > 100 |  |  |  | > 100 |  | > 100 |  | > 100 |  | > 100 |  | > 100 |  | > 100 |
| [O-]c1c2c(nn1-c1ccccc1)c1ccccc1c[n+]2Cc1ccccc1 |  | > 100 |  |  |  | > 100 |  | > 100 |  | > 100 |  | > 100 |  | > 100 |  | > 100 |  | > 100 |  | > 100 |
| COC(=O)C1=C2CCC(=O)[C@@]2(C)C(OC(C)=O)C=CC1 (stereo not given in full) |  | > 100 |  | > 100 |  | > 100 |  | 69.6 |  | 87.3 |  | > 100 |  |  |  | > 100 |  |  |  | > 100 |
| CC(=O)N1N=C2/C(=C/c3ccccc3)CC(C)CC2C1c1ccccc1 (stereo not given) | 17.7 | 34.8 | 16.5 | 30.7 | 13 | 26.8 |  |  | 13.7 | 28.9 | 16.6 | 32.6 | 13.9 | 31.2 | 17.4 | 32.7 | 14.5 | 30.1 | 11.7 | 25.4 |
